ChEMBL document CHEMBL1134190, “Synthesis of substituted 4(Z)-(methoxyimino)pentyl-1-piperidines as dual NK1/NK2 inhibitors” (Bioorg Med Chem Lett, 2001)

Experiments:
[1] = target: Substance-P receptor (Homo sapiens, UniProt P25103); assay: Binding affinity towards NK1 receptor
[2] = target: T1, Substance-K receptor (Homo sapiens, UniProt P21452); assay: Binding affinity towards NK2 receptor
T1 sequence (P21452 whole entry): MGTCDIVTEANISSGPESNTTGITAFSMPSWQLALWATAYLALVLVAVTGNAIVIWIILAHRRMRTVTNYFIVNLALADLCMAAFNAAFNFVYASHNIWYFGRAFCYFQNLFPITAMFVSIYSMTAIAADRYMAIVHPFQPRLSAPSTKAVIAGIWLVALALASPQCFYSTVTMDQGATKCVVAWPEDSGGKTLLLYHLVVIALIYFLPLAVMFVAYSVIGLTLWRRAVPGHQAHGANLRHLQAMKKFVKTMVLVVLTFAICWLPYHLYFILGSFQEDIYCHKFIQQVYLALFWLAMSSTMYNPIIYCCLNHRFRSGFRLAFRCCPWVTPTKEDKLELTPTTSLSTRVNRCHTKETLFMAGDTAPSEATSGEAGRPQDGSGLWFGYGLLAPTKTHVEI

Substance-P receptor, sequence (P25103 whole entry): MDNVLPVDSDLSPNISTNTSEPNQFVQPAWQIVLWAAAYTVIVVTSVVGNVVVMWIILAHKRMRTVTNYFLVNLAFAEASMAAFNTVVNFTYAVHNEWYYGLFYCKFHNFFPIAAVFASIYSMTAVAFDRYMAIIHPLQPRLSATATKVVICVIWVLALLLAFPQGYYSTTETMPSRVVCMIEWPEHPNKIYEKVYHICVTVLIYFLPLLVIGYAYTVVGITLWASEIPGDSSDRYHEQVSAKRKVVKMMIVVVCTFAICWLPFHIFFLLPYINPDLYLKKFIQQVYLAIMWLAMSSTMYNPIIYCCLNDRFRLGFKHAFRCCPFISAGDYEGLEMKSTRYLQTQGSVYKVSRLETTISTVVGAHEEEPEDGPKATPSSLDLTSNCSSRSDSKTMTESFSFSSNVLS

| Structure (SMILES) | Ki [1] [nM] | Ki [2] [nM] |
| --- | --- | --- |
| CO/N=C(\COCc1cc(C(F)(F)F)cc(C(F)(F)F)c1)C(CCN1CCC(N2CCCC2)CC1)c1ccc(Cl)c(Cl)c1 (stereo not drawn) | 36 | 195 |
| CO/N=C(\COCc1cc(C(F)(F)F)cc(C(F)(F)F)c1)C(CCN1CCC(N2CCCC(C(N)=O)C2)CC1)c1ccc(Cl)c(Cl)c1 (stereo not drawn) | 13 | 11 |
| CO/N=C(\COCc1cc(C(F)(F)F)cc(C(F)(F)F)c1)C(CCN1CCC(N2CCCCC2=O)CC1)c1ccc(Cl)c(Cl)c1 (stereo not drawn) | 18 | 4 |
| CO/N=C(\COCc1cc(C(F)(F)F)cc(C(F)(F)F)c1)C(CCN1CCC(CNC(=O)c2ccccc2)CC1)c1ccc(Cl)c(Cl)c1 (stereo not drawn) | 112 | 137 |
| CO/N=C(\COCc1cc(C(F)(F)F)cc(C(F)(F)F)c1)C(CCN1CCC(NC(=O)C2CCCCC2)CC1)c1ccc(Cl)c(Cl)c1 (stereo not drawn) | 44 | 146 |
| CO/N=C(\COCc1cc(C(F)(F)F)cc(C(F)(F)F)c1)C(CCN1CCC(CN2CCCCC2CCO)CC1)c1ccc(Cl)c(Cl)c1 (stereo not drawn) | 13 | 14 |
| CO/N=C(\COCc1cc(C(F)(F)F)cc(C(F)(F)F)c1)C(CCN1CCC(CN2CCCCC2=S)CC1)c1ccc(Cl)c(Cl)c1 (stereo not drawn) | 20 | 23 |
| CO/N=C(\COCc1cc(C(F)(F)F)cc(C(F)(F)F)c1)C(CCN1CCC(CN2CCCC(OC(=O)NC(C)C)C2)CC1)c1ccc(Cl)c(Cl)c1 (stereo not drawn) | 17 | 33 |
| CO/N=C(\COCc1cc(C(F)(F)F)cc(C(F)(F)F)c1)C(CCN1CCC(C(N)=O)CC1)c1ccc(Cl)c(Cl)c1 (stereo not drawn) |  | 67 |
| C=CCC1CCCN(CC2CCN(CCC(/C(COCc3cc(C(F)(F)F)cc(C(F)(F)F)c3)=N/OC)c3ccc(Cl)c(Cl)c3)CC2)C1=O (stereo not drawn) | 13 | 58 |
| CO/N=C(\COCc1cc(C(F)(F)F)cc(C(F)(F)F)c1)C(CCN1CCC(N2CCCC2=S)CC1)c1ccc(Cl)c(Cl)c1 (stereo not drawn) | 16 | 23 |
| CO/N=C(\COCc1cc(C(F)(F)F)cc(C(F)(F)F)c1)C(CCN1CCC(CN2CCCC(CC(O)CO)C2=O)CC1)c1ccc(Cl)c(Cl)c1 (stereo not drawn) | 7 | 16 |
| CO/N=C(\COCc1cc(C(F)(F)F)cc(C(F)(F)F)c1)C(CCN1CCC(CN2CCCCC2)CC1)c1ccc(Cl)c(Cl)c1 (stereo not drawn) | 36 | 26 |
| CO/N=C(\COCc1cc(C(F)(F)F)cc(C(F)(F)F)c1)C(CCN1CCC(CN2CCOCC2)CC1)c1ccc(Cl)c(Cl)c1 (stereo not drawn) | 14 | 39 |
| CCOC(=O)C1CCCN(C2CCN(CCC(/C(COCc3cc(C(F)(F)F)cc(C(F)(F)F)c3)=N/OC)c3ccc(Cl)c(Cl)c3)CC2)C1 (stereo not drawn) | 117 | 20 |
| CO/N=C(\COCc1cc(C(F)(F)F)cc(C(F)(F)F)c1)C(CCN1CCC(NC(=O)c2ccccc2)CC1)c1ccc(Cl)c(Cl)c1 (stereo not drawn) | 18 | 144 |

| Structure (SMILES) | Ki [1] [nM] | Ki [2] [nM] |
| --- | --- | --- |
| CO/N=C(\COCc1cc(C(F)(F)F)cc(C(F)(F)F)c1)C(CCN1CCC(CN2CCCC(O)C2)CC1)c1ccc(Cl)c(Cl)c1 (stereo not drawn) | 38 | 47 |
| CO/N=C(\COCc1cc(C(F)(F)F)cc(C(F)(F)F)c1)C(CCN1CCC(C(=O)N2CCCC2)CC1)c1ccc(Cl)c(Cl)c1 (stereo not drawn) | 6 | 59 |
| CO/N=C(\COCc1cc(C(F)(F)F)cc(C(F)(F)F)c1)C(CCN1CCC(CN2CCCC(CO)C2)CC1)c1ccc(Cl)c(Cl)c1 (stereo not drawn) | 50 | 39 |
| CCOC(=O)C1CCCN(CC2CCN(CCC(/C(COCc3cc(C(F)(F)F)cc(C(F)(F)F)c3)=N/OC)c3ccc(Cl)c(Cl)c3)CC2)C1 (stereo not drawn) | 16 | 28 |
| CO/N=C(\COCc1cc(C(F)(F)F)cc(C(F)(F)F)c1)C(CCN1CCC(CN2CCCC(CC3CC3)C2=O)CC1)c1ccc(Cl)c(Cl)c1 (stereo not drawn) | 14 | 26 |
| CO/N=C(\COCc1cc(C(F)(F)F)cc(C(F)(F)F)c1)C(CCN1CCC(N2CCC(OC(=O)NC(C)C)C2)CC1)c1ccc(Cl)c(Cl)c1 (stereo not drawn) | 19 | 67 |
| CO/N=C(\COCc1cc(C(F)(F)F)cc(C(F)(F)F)c1)C(CCN1CCC(CNC2(CO)CCCC2)CC1)c1ccc(Cl)c(Cl)c1 (stereo not drawn) | 24 | 16 |
| CO/N=C(\COCc1cc(C(F)(F)F)cc(C(F)(F)F)c1)C(CCN1CCC(CN2CCCC(C(N)=O)C2)CC1)c1ccc(Cl)c(Cl)c1 (stereo not drawn) | 25 | 27 |
| CO/N=C(\COCc1cc(C(F)(F)F)cc(C(F)(F)F)c1)C(CCN1CCC(N2CCCCC2CO)CC1)c1ccc(Cl)c(Cl)c1 (stereo not drawn) | 14 | 15 |
| CO/N=C(\COCc1cc(C(F)(F)F)cc(C(F)(F)F)c1)C(CCN1CCC(N2CCC(O)C2)CC1)c1ccc(Cl)c(Cl)c1 (stereo not drawn) | 4 | 16 |
| CO/N=C(\COCc1cc(C(F)(F)F)cc(C(F)(F)F)c1)C(CCN1CCC(CN2CCCCC2=O)CC1)c1ccc(Cl)c(Cl)c1 (stereo not drawn) | 10 | 12 |
| CO/N=C(\COCc1cc(C(F)(F)F)cc(C(F)(F)F)c1)C(CCN1CCC(CN2CCCC(Cc3ccccc3)C2=O)CC1)c1ccc(Cl)c(Cl)c1 (stereo not drawn) | 69 | 91 |
| CO/N=C(\COCc1cc(C(F)(F)F)cc(C(F)(F)F)c1)C(CCN1CCC(N2CCC[C@H]2C(N)=O)CC1)c1ccc(Cl)c(Cl)c1 (stereo partly drawn) | 13 | 11 |
| CO/N=C(\COCc1cc(C(F)(F)F)cc(C(F)(F)F)c1)C(CCN1CCC(CN2CCCCC2CO)CC1)c1ccc(Cl)c(Cl)c1 (stereo not drawn) | 20 | 53 |
| CO/N=C(\COCc1cc(C(F)(F)F)cc(C(F)(F)F)c1)C(CCN1CCC(N2CCCC2=O)CC1)c1ccc(Cl)c(Cl)c1 (stereo not drawn) | 9 | 7 |
| CO/N=C(\COCc1cc(C(F)(F)F)cc(C(F)(F)F)c1)C(CCN1CCC(CN2CCCC2=O)CC1)c1ccc(Cl)c(Cl)c1 (stereo not drawn) | 8 | 21 |
